ChEMBL document CHEMBL5321272 (J Med Chem, 2023)
Calls of active or inactive are those of the source. The calls are words filed in the database; no cut-off is given here.

Tests used:
[1] = system: BaF3; experiment: Antiproliferative activity against mouse BaF3 cells harboring FLT3 D835V mutant assessed as reduction in cell viability incubated for 72 hrs by CellTiter 96 Aqueous One Solution Cell Proliferation Assay; type: functional, cell-based
[2] = system: BaF3; experiment: Antiproliferative activity against mouse BaF3 cells harboring FLT3 D835F mutant assessed as reduction in cell viability incubated for 72 hrs by CellTiter 96 Aqueous One Solution Cell Proliferation Assay; type: functional, cell-based
[3] = biological target: Receptor-type tyrosine-protein kinase FLT3 (Homo sapiens) (UniProt P36888); experiment: Inhibition of FLT3 in human MV4-11 cells assessed as inhibition of ERK phosphorylation at Tyr204 residue measured after 90 mins by western blot analysis; type: cell-based; conditions: dose 20-100 nM
[4] = Half life in ICR mouse at 10 mg/kg, po; type: ADME, organism-based; conditions: in vivo
[5] = system: Z-138; experiment: Antiproliferative activity against human Z138 cells assessed as reduction in cell viability incubated for 72 hrs by CellTiter 96 Aqueous One Solution Cell Proliferation Assay; type: functional, cell-based; conditions: Z-138, 72 h
[6] = Acute toxicity in ICR mouse assessed as morphological changes in kidney at 300 mg/kg, ig and measured for 7 days by Hematoxylin-Eosin staining based analysis; type: organism-based; conditions: in vivo, po, 168 h, time 7 day
[7] = Acute toxicity in ICR mouse assessed as morphological changes in heart at 300 mg/kg, ig and measured for 7 days by Hematoxylin-Eosin staining based analysis; type: organism-based; conditions: in vivo, po, 168 h, time 7 day
[8] = Selectivity ratio of IC50 for PAK1 (unknown origin) to IC50 for FLT3-ITD mutant (unknown origin)
[9] = system: MM1.S; experiment: Antiproliferative activity against human MM1.S cells assessed as reduction in cell viability incubated for 72 hrs by CellTiter 96 Aqueous One Solution Cell Proliferation Assay; type: functional, cell-based
[10] = AUC (infinity) in ICR mouse at 10 mg/kg, po; type: ADME, organism-based; parameters: dose 10 mg/kg, route po; conditions: in vivo
[11] = biological target: Ribosomal protein S6 kinase beta-1 (Homo sapiens, UniProt P23443); experiment: Inhibition of P70S6K (unknown origin) by HTRF assay
[12] = biological target: Hepatocyte growth factor receptor (Homo sapiens, UniProt P08581); experiment: Inhibition of MET (unknown origin) by HTRF assay
[13] = Selectivity ratio of IC50 for PIM1 (unknown origin) to IC50 for FLT3-ITD mutant (unknown origin)
[14] = biological target: T1, Serine/threonine-protein kinase Chk1 (Homo sapiens, UniProt O14757)
T1 sequence (O14757 whole entry): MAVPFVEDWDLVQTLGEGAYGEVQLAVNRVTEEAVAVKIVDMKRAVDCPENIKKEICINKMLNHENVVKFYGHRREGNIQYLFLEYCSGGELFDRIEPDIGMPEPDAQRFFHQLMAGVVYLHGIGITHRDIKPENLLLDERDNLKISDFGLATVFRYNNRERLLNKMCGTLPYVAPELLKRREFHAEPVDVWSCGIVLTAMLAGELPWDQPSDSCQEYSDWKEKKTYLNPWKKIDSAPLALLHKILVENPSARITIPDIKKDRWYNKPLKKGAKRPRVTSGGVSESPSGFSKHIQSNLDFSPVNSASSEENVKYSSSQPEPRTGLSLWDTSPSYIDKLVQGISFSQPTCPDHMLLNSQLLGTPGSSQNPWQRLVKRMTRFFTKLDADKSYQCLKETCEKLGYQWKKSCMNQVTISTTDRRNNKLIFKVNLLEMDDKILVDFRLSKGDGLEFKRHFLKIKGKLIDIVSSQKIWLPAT
Description: Inhibition of CHK1 (unknown origin) using peptide substrate S1 and ATP as substrate incubated for 1 hr by HTRF assay

[15] = biological target: Voltage-gated inwardly rectifying potassium channel KCNH2 (Homo sapiens, UniProt Q12809); experiment: Inhibition of hERG expressed in HEK293 cells assessed as inhibition of channel current amplitude at 100 uM by whole cell patch clamp analysis; type: toxicity, cell-based; conditions: hek293, 100 µM
[16] = biological target: Receptor-type tyrosine-protein kinase FLT3 (Homo sapiens) (UniProt P36888); experiment: Inhibition of FLT3 in human MV4-11 cells assessed as inhibition of FLT3 phosphorylation measured after 90 mins by western blot analysis; type: cell-based; conditions: dose 20-100 nM
[17] = biological target: T2, Serine/threonine-protein kinase Chk1 (Homo sapiens) (UniProt O14757); experiment: Inhibition of CHK1 in human MV4-11 cells assessed as upregulation of p53 protein expression measured after 90 mins by western blot analysis; type: cell-based; conditions: dose 50-200 nM
T2 sequence (whole entry): T1 sequence (O14757 whole entry)

[18] = Selectivity ratio of IC50 for P70S6K (unknown origin) to IC50 for FLT3-ITD mutant (unknown origin)
[19] = biological target: T2, Serine/threonine-protein kinase Chk1 (Homo sapiens); experiment: Inhibition of CHK1 in human MV4-11 cells assessed as upregulation of p21 protein expression measured after 90 mins by western blot analysis; type: cell-based; conditions: dose 50-200 nM
[20] = biological target: Casein kinase I isoform alpha (Homo sapiens, UniProt P48729); experiment: Inhibition of CK1 alpha (unknown origin) by HTRF assay
[21] = biological target: Receptor-type tyrosine-protein kinase FLT3 (Homo sapiens) (UniProt P36888); experiment: Inhibition of FLT3 in human MV4-11 cells assessed as inhibition of ERK phosphorylation at Tyr204 residue at 20 nM measured after 90 mins by western blot analysis; type: cell-based
[22] = system: JeKo-1; experiment: Antiproliferative activity against human JeKo-1 cells assessed as reduction in cell viability incubated for 72 hrs by CellTiter 96 Aqueous One Solution Cell Proliferation Assay; type: functional, cell-based; conditions: JeKo-1, 72 h
[23] = biological target: hERG (KCNH2) (Homo sapiens, UniProt Q12809); experiment: Inhibition of hERG expressed in HEK293 cells at 20 uM by whole cell patch clamp analysis; type: toxicity, cell-based; conditions: HEK293 cells expressing hERG
[24] = Selectivity ratio of IC50 for CDK2 (unknown origin) to IC50 for FLT3-ITD mutant (unknown origin)
[25] = biological target: Receptor-type tyrosine-protein kinase FLT3 (Homo sapiens, UniProt P36888, ITD); experiment: Inhibition of FLT3 ITD mutant (unknown origin) by HTRF assay
[26] = biological target: Receptor-type tyrosine-protein kinase FLT3 (Homo sapiens) (UniProt P36888); experiment: Inhibition of FLT3 in human MV4-11 cells assessed as inhibition of FLT3 phosphorylation at 20 nM measured after 90 mins by western blot analysis; type: cell-based
[27] = Selectivity ratio of IC50 for MET (unknown origin) to IC50 for FLT3-ITD mutant (unknown origin)
[28] = Selectivity ratio of IC50 for JAK3 (unknown origin) to IC50 for FLT3-ITD mutant (unknown origin)
[29] = system: MOLM-13; experiment: Antitumor activity against human MOLM-13 cells xenografted in NSG mouse assessed as prolongation of animal's survival at 15 mg/kg, po qd for 26 days; type: functional, organism-based; conditions: time 26.0 day
[30] = Selectivity ratio of IC50 for BLK (unknown origin) to IC50 for FLT3-ITD mutant (unknown origin)
[31] = biological target: T2, Serine/threonine-protein kinase Chk1 (Homo sapiens); experiment: Inhibition of CHK1 in human MV4-11 cells assessed as increase in CHK1 phosphorylation at Ser345 residue at 50 to 200 nM measured after 90 mins by western blot analysis; type: cell-based; conditions: dose 50-200 nM
[32] = system: MOLM-13; experiment: Antitumor activity against human MOLM-13 cells xenografted in NSG mouse assessed as animal's survival rate at 30 mg/kg, po qd for 26 days (reference value: 17 days); type: functional; conditions: time 26 day
[33] = Selectivity ratio of IC50 for CK1alpha (unknown origin) to IC50 for FLT3-ITD mutant (unknown origin)

Receptor-type tyrosine-protein kinase FLT3 (Homo sapiens), sequence (P36888 whole entry): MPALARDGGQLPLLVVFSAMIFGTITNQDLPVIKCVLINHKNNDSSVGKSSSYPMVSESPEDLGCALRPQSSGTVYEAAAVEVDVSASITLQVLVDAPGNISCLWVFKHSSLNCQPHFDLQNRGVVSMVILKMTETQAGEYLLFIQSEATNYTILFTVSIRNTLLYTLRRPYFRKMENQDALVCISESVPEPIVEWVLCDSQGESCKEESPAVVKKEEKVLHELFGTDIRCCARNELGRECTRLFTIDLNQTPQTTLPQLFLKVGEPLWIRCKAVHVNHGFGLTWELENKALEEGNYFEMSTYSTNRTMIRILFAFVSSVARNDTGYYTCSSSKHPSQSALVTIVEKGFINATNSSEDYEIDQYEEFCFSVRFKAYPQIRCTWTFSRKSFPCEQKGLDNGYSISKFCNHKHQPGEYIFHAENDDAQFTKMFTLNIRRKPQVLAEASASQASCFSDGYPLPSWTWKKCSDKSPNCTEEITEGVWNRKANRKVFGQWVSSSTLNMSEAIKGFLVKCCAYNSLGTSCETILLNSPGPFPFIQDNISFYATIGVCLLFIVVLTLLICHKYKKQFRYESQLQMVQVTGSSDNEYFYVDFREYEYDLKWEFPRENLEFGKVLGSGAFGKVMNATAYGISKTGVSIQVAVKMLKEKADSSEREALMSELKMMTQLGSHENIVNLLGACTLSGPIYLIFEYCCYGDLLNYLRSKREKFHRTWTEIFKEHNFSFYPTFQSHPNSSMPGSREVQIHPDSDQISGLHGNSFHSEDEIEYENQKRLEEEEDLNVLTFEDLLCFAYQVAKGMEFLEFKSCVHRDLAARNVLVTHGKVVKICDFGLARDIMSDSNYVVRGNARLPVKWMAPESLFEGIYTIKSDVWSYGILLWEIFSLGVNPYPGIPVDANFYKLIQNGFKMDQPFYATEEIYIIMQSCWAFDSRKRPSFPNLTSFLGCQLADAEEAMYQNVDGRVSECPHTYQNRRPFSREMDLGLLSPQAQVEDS
Receptor-type tyrosine-protein kinase FLT3, sequence (P36888 whole entry, looked up, stated change not applied): as the sequence (P36888 whole entry) above
Voltage-gated inwardly rectifying potassium channel KCNH2, sequence (Q12809 whole entry): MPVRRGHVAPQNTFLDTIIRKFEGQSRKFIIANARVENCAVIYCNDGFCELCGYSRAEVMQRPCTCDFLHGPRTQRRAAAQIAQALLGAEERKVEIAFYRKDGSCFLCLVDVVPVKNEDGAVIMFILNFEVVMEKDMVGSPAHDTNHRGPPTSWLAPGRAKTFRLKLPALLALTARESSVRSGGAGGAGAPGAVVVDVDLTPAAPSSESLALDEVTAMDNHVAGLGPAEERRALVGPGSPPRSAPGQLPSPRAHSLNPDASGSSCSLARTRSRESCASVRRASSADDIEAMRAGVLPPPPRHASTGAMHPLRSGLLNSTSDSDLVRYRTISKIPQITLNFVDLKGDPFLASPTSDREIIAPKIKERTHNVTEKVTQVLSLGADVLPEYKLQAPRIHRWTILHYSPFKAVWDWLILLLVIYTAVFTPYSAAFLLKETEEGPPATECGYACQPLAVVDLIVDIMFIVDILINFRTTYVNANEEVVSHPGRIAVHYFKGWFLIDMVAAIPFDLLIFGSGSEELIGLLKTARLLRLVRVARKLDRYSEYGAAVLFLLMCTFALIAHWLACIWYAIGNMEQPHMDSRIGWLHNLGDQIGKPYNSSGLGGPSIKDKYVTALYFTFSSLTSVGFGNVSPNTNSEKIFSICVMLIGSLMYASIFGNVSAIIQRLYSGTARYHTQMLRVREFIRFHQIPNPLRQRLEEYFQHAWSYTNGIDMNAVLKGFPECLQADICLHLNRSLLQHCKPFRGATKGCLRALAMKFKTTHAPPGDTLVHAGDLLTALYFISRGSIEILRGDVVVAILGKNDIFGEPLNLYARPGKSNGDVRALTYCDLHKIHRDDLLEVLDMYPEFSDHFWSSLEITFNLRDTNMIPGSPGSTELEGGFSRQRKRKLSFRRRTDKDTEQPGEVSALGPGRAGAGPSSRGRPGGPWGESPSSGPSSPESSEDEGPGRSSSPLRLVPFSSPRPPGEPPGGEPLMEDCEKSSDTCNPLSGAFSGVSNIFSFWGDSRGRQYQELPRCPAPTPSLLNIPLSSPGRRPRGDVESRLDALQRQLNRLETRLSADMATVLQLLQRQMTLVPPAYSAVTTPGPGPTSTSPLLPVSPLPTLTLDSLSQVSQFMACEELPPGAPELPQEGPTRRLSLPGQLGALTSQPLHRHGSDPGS
hERG (KCNH2), sequence (Q12809 whole entry): as above
Casein kinase I isoform alpha, sequence (P48729 whole entry, canonical isoform): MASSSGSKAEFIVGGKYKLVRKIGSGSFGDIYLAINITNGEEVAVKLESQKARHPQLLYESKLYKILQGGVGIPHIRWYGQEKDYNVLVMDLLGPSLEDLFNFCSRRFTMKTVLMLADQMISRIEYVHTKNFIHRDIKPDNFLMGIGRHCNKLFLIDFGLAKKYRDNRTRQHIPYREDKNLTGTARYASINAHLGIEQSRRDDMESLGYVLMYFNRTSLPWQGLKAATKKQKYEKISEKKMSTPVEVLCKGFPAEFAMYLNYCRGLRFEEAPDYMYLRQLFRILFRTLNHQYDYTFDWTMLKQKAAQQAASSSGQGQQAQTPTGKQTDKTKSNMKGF
Ribosomal protein S6 kinase beta-1, sequence (P23443 whole entry): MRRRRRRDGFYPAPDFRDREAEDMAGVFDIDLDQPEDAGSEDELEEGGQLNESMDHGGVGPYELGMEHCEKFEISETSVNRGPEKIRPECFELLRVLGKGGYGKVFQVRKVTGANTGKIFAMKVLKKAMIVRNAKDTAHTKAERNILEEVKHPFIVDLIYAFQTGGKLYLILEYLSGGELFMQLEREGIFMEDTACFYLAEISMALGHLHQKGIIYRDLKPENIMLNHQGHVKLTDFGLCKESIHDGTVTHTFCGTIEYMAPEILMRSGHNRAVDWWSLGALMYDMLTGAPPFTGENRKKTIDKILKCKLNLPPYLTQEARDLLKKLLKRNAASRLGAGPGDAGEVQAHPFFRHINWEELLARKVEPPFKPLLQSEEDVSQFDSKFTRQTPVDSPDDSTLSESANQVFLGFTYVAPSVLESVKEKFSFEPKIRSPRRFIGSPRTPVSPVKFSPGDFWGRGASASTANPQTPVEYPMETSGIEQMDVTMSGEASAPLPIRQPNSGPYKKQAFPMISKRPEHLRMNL

## CC(C)(O)CC(=O)N1CCc2cc(Nc3ncc(C(F)(F)F)c(N[C@H]4CC[C@@H](N)CC4)n3)ccc2C1
[1]
  Activity: Active
[2]
  Activity: Active
[3]
  inhibition: Dose-Dependent Effect
[4]
  half-life: 5.6 h
[5]
  IC50: 115 nM
[6]
  Activity: Non-Toxic
[7]
  Activity: Non-Toxic
[8]
  Ratio IC50: > 100
[9]
  Activity: inactive
[10]
  AUC(0-inf): 1660 ng·h/mL
[11]
  IC50: 91.6 nM
[12]
  IC50: > 10000 nM
[13]
  Ratio IC50: > 100
[14]
  IC50: 9.8 nM
[15]
  inhibition (INH): Active
[16]
  inhibition: Dose-Dependent Effect
[17]
  inhibition: Dose-Dependent Effect
[18]
  Ratio IC50: > 100
[19]
  inhibition: Dose-Dependent Effect
[20]
  IC50: > 10000 nM
[21]
  inhibition: 100%
[22]
  IC50: 260 nM
[23]
  inhibition at 20 µM: 2.37%
[24]
  Ratio IC50: > 100
[25]
  IC50: < 10 nM
[26]
  inhibition: 100%
[27]
  Ratio IC50: > 100
[28]
  Ratio IC50: > 100
[29]
  Activity: inactive
[30]
  Ratio IC50: > 100
[31]
  inhibition: Active
[32]
  Survival: 22 days
[33]
  Ratio IC50: > 100
